Data reported in patent US20110173718A1, “HERBICIDE TOLERANT PLANTS” (SYNGENTA CROP PROTECTION, INC., priority 2008, published 2011).
Several values for one entry are separate records, joined by “and”; a condition that tells them apart may be missing. Identical values can stand only once. Like-named read-outs stand apart in the source and are kept apart here.

Key:
Type in all cases: in vivo
[1] = tested on: tobacco (var Samsun) plantlets on liquid culture medium; assay: HST + HPPD herbicide effects on tobacco seedlings on liquid culture medium; conditions: for % bleaching, +mesotrione 0.001 ppm / % bleaching, HST herbicide alone: liquid culture medium, 14 DAT; for effect of low amounts of mesotrione on the injury down the dose response: liquid culture, repeat experiments
Experimental: In an alternative herbicide test procedure tobacco (var Samsun) plantlets germinated aseptically in agar made up in 1/3 strength Murashige and Skoog salts medium are transferred after 4 d to float on top of 2.9 ml of sterile liquid culture medium (half strength Murashige and Skoog medium containing 30 mM sucrose) in wells of 12 well plates. Test compounds are added at various doses and bleaching damage is assessed after 14-20 DAT. The plantlets are kept covered under clear perspex and grown at 18° C. (night) and 24° C. (day) under a 1611 day (˜500-900 umol/m^2), 8 h darkness regime Plantlets continue to grow and produce new tissue over the 14-20 DAT period but are bleached and grow less in the presence of controlling concentrations of herbicide.

weeds = assay: Glasshouse weed control, HST inhibitors alone and with A22, post-emergence; conditions: 336 h, 14 DAT, single replicate, read-out: % control score, Obs; for pest or weed control at 15.625 g/ha: 15.625 g/ha alone; for pest or weed control at 62.5 g/ha: 62.5 g/ha alone; for pest or weed control at 250 g/ha: 250 g/ha alone
Outline: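 Weeds grown in glasshouse trays (24-27 C day, 18-21 C night, ~15 h photoperiod) and track-sprayed in 0.2% X77 at […], pre-emergence or post-emergence at about 7-12 d. HPPD inhibitor A22 applied at 2 g/ha alone or mixed with HST herbicides. Damage scored 0–100% at 14 DAT; synergy calculated by Colby formula.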

[2] = tested on: tobacco plants expressing Wheat HPPD; assay: Glasshouse spray test, wheat HPPD transgenic tobacco; conditions: 100 g, individual T0 lines
Excerpt: (§1) Transgenic lines of tobacco, soyabean and corn etc. can be engineered to express various heterologous HPPDs derived from, for example Avena (SEQ ID #26), Wheat (SEQ ID #27), Pseudomonas fluorescens (SEQ ID # 25) and Shewanella colwelliana (SEQ ID #28) as, for example, described in WO 02/46387.
Single copy events amongst the T1 plant lines are identified by their 3:1 segregation ratio (wrt kanamycin and or herbicide) and by quantitative RT-PCR. Seed from the thus selected T1 tobacco (var Samsun) lines are sown in 3 inch diameter pots containing 50% peat, 50% John Innes soil no 3. After growth to the 3 leaf stage, plants are sprayed, as described above, in order to test for herbicide tolerance relative to like-treated non-transgenic tobacco plants. […]
Exactly as described in example 5 of WO 02/46387 the wheat HPPD gene sequence (Embl DD064495) is cloned behind an Arabidopsis Rubisco small subunit (SSU) promoter and in front of a nos gene terminator to produce an SSU Wheat HPPD nos expression cassette' which is cloned into a binary vector and transformed into tobacco to produce a population of 30-50 transgenic events.

[3] = tested on: tobacco plants expressing Pseudomonas fluorescens HPPD; assay: Glasshouse spray test, Pseudomonas HPPD transgenic tobacco; conditions: C2 line (Pseudomonas HPPD, T2), individual plants
Excerpt: Tobacco plants expressing the wild-type HPPD gene of Pseudomonas fluorescens strain 87-79 under operable control of the double enhanced 35S CMV promoter region, Nos3′ terminator and TMV translational enhancer were provided as detailed in Example 4 of WO0246387.
Seed of wild-type tobacco plants, C2 tobacco plants and of the T1 progeny of a further Arabidopsis-HST expressing tobacco line, D2 were planted out in 3 inch pots, grown on, sprayed with compounds 1.1, 2.30 and 3.6 at the rates shown in table 5. Percent damage scores were assessed at 7 DAT. Aside from the presumptive non-transgenic segregants the D2 line containing the Arabidopis HST expression construct offered the highest level of tolerance to the two HST herbicides with the Psuedomonas HPPD, C2 line, offering only marginal tolerance under the conditions of this test.
as §1
Single copy events amongst the T1 plant lines are identified by their 3:1 segregation ratio (wrt kanamycin and or herbicide) and by quantitative RT-PCR. Seed from the thus selected T1 tobacco (var Samsun) lines are sown in 3 inch diameter pots containing 50% peat, 50% John Innes soil no 3. After growth to the 3 leaf stage, plants are sprayed, as described above, in order to test for herbicide tolerance relative to like-treated non-transgenic tobacco plants.
Control tobacco plants and transgenic T1 plants expressing either the Pseudomonas or the wheat HPPD gene are sprayed at 37, 111, 333 and 1000 g/ha rates of HST inhibitors and, for example, compound 2.3.
Plants are assessed and scored for % damage at 16 DAT.

[4] = 0.19 ppm + mesotrione 0.001 ppm
[5] = 0.58 ppm + mesotrione 0.001 ppm

| Structure (SMILES) | % bleaching, +mesotrione 0.001 ppm [1, 4] [%] | % bleaching, HST herbicide alone ([1]; 0.19 ppm) [%] | % bleaching, +mesotrione 0.001 ppm [1, 5] [%] | % bleaching, HST herbicide alone ([1]; 0.58 ppm) [%] | % bleaching, +mesotrione 0.001 ppm ([1]; 1.7 ppm + mesotrione 0.001 ppm) [%] | % bleaching, HST herbicide alone ([1]; 1.7 ppm) [%] | % bleaching, +mesotrione 0.001 ppm ([1]; 5.2 ppm + mesotrione 0.001 ppm) [%] | % bleaching, HST herbicide alone ([1]; 5.2 ppm) [%] | % bleaching, +mesotrione 0.001 ppm ([1]; 16 ppm + mesotrione 0.001 ppm) [%] | % bleaching, HST herbicide alone ([1]; 16 ppm) [%] | % bleaching, +mesotrione 0.001 ppm ([1]; 47 ppm + mesotrione 0.001 ppm) [%] | % bleaching, HST herbicide alone ([1]; 47 ppm) [%] | effect of low amounts of mesotrione on the injury down the dose response [1] | also measured |
| --- | --- | --- | --- | --- | --- | --- | --- | --- | --- | --- | --- | --- | --- | --- |
| O=c1c(-c2c(F)ccc(Br)c2Cl)c(O)c2cccnc2n1CC(F)F [Compound 2.15] | 0 | 5 | 5 | 0 | 80 | 5 | 70 | 40 | 100 | 100 | 100 | 100 | clear synergistic effects | pest or weed control at 15.625 g/ha (weeds; BRAPL): 0%; pest or weed control at 62.5 g/ha (weeds; BRAPL): 0%; pest or weed control at 250 g/ha (weeds; BRAPL): 5%; pest or weed control at 15.625 g/ha (weeds; PANMI): 0%; pest or weed control at 62.5 g/ha (weeds; PANMI): 0%; pest or weed control at 250 g/ha (weeds; PANMI): 0%; pest or weed control at 15.625 g/ha (weeds; SIDSP): 0%; pest or weed control at 62.5 g/ha (weeds; SIDSP): 10%; pest or weed control at 250 g/ha (weeds; SIDSP): 15%; pest or weed control at 15.625 g/ha (weeds; Digitaria sanguinalis, DIGSA): 0%; pest or weed control at 62.5 g/ha (weeds; Digitaria sanguinalis, DIGSA): 0%; pest or weed control at 250 g/ha (weeds; Digitaria sanguinalis, DIGSA): 0%; pest or weed control at 15.625 g/ha (weeds; Echinochloa crus-galli, ECHCG): 0%; pest or weed control at 62.5 g/ha (weeds; Echinochloa crus-galli, ECHCG): 0%; pest or weed control at 250 g/ha (weeds; Echinochloa crus-galli, ECHCG): 2%; pest or weed control at 15.625 g/ha (weeds; Setaria faberi, SETFA): 0%; pest or weed control at 62.5 g/ha (weeds; Setaria faberi, SETFA): 0%; pest or weed control at 250 g/ha (weeds; Setaria faberi, SETFA): 2% |
| CC(C)C(=O)Oc1c(-c2c(F)ccc(Br)c2Cl)c(=O)n(CC(F)F)c2nccnc12 [Compound 2.30] | – | – | – | – | – | – | – | – | – | – | – | – | – | blch (% bleaching at the meristem relative to control plants) ([2]; 7 DAT): 35% (5×) and 40% (5×) and 50% (2×) and 60% (2×) and 30% (6×) and 70% (2×) and 10% (2×); ht (% height reduction relative to control plants) ([2]; 7 DAT): 50% (5×) and 60% (3×) and 90% (3×) and 70% (7×) and 40% (2×) and 30% (2×) and 20% (2×); blch (% bleaching at the meristem relative to control plants) ([2]; 21 DAT): 0% (15×) and 90% (2×) and 70% (5×) and 50% (2×) and 65% and 45%; ht (% height reduction relative to control plants) ([2]; 21 DAT): 45% (2×) and 85% (3×) and 80% (2×) and 30% and 55% (3×) and 50% (5×) and 40% (3×) and 60% (2×) and 75% and 70% (2×) and 95% and 90%; % damage at 7 DAT ([3]; 150 gai/ha): 90% and 70% and 80% (2×); % damage at 7 DAT ([3]; 300 gai/ha): 85%; % damage at 7 DAT ([3]; 450 gai/ha): 65% and 70% and 85% (2×) |
| Oc1c(Cl)c(F)nc(F)c1Cl [Compound 1.1, haloxydine] | 100 | 50 | 100 | 90 | 100 | 100 | 100 | 100 | 100 | 100 | 100 | 100 | clear synergistic effects | % damage at 7 DAT ([3]; 25 gai/ha): 75% |
